Results reported in ChEMBL document CHEMBL3244399, “Antifungal agents. 4. Chemical modification of antibiotics from Polyangium cellulosum var. fulvum. Ester and amide analogues of ambruticin” (1979).
Values after ≈ are worked out from the molar mass of the structure shown. Active and inactive are the calls of the source. The rule behind the calls is not given here.

Legend:
[1] = system: Histoplasma capsulatum; test: Antifungal activity against Histoplasma capsulatum assessed as growth inhibition by standard broth dilution method; format: functional
[2] = Antifungal activity against Microsporum fulvum assessed as growth inhibition by standard broth dilution method; format: functional; conditions: Arthroderma fulvum
[3] = system: Streptococcus pyogenes; test: Antifungal activity against Streptococcus pyogenes assessed as growth inhibition by standard broth dilution method; format: functional
[4] = system: Candida albicans; test: Antifungal activity against Candida albicans assessed as growth inhibition by standard broth dilution method; format: functional, organism-based

| Structure (SMILES) | MIC [1] [µg/mL] | MIC [2] [µg/mL] | MIC [3] | inhibition [4] |
| --- | --- | --- | --- | --- |
| CC[C@H]1O[C@@H](/C(C)=C/[C@H](C)/C=C/[C@H]2[C@@H](C)[C@@H]2/C=C/[C@@H]2O[C@H](CC(=O)N3CCCCC3)C[C@H](O)[C@H]2O)CC=C1C | 3.12 (≈ 5.76 µM) | 0.78 (≈ 1.44 µM) | 1.56 µg/mL (≈ 2.88 µM) | inactive |
| CC[C@H]1O[C@@H](/C(C)=C/[C@H](C)/C=C/[C@H]2[C@@H](C)[C@@H]2/C=C/[C@@H]2O[C@H](CC(=O)N3CCCCC3)C[C@H](OC(C)=O)[C@H]2OC(C)=O)CC=C1C |  |  |  | inactive |
| CC[C@H]1O[C@@H](/C(C)=C/[C@H](C)/C=C/[C@H]2[C@@H](C)[C@@H]2/C=C/[C@@H]2O[C@H](CC(=O)NCc3ccccc3)C[C@H](OC(C)=O)[C@H]2OC(C)=O)CC=C1C |  |  |  | inactive |
| CC[C@H]1O[C@@H](/C(C)=C/[C@H](C)/C=C/[C@H]2[C@@H](C)[C@@H]2/C=C/[C@@H]2O[C@H](CC(=O)O)C[C@H](O)[C@H]2O)CC=C1C (relative stereo) [AMBRUTICIN] | 0.195 (≈ 0.411 µM) | 0.098 (≈ 0.206 µM) | 25 µg/mL (≈ 52.7 µM) | inactive |
| CC[C@H]1O[C@@H](/C(C)=C/[C@H](C)/C=C/[C@H]2[C@@H](C)[C@@H]2/C=C/[C@@H]2O[C@H](CC(=O)N(C(=O)NC3CCCCC3)C3CCCCC3)C[C@H](OC(C)=O)[C@H]2OC(C)=O)CC=C1C | > 50 | > 50 | inactive | inactive |
| CC[C@H]1O[C@@H](/C(C)=C/[C@H](C)/C=C/[C@H]2[C@@H](C)[C@@H]2/C=C/[C@@H]2O[C@H](CC(=O)NC3CCCCC3)C[C@H](OC(C)=O)[C@H]2OC(C)=O)CC=C1C | > 50 | > 50 | inactive | inactive |
| CCCCNC(=O)C[C@@H]1C[C@H](OC(C)=O)[C@@H](OC(C)=O)[C@H](/C=C/[C@H]2[C@H](C)[C@@H]2/C=C/[C@@H](C)/C=C(\C)[C@H]2CC=C(C)[C@@H](CC)O2)O1 |  |  |  | inactive |
| CC[C@H]1O[C@@H](/C(C)=C/[C@H](C)/C=C/[C@H]2[C@@H](C)[C@@H]2/C=C/[C@@H]2O[C@H](CC(=O)NC3CCCCC3)C[C@H](O)[C@H]2O)CC=C1C | 3.12 (≈ 5.61 µM) | 25 (≈ 45 µM) |  | inactive |
| CC[C@H]1O[C@@H](/C(C)=C/[C@H](C)/C=C/[C@H]2[C@@H](C)[C@@H]2/C=C/[C@@H]2O[C@H](CC(=O)O)C[C@H](OC(C)=O)[C@H]2OC(C)=O)CC=C1C (relative stereo) | 3.12 (≈ 5.58 µM) | 3.12 (≈ 5.58 µM) | 6.25 µg/mL (≈ 11.2 µM) | inactive |
| CC[C@H]1O[C@@H](/C(C)=C/[C@H](C)/C=C/[C@H]2[C@@H](C)[C@@H]2/C=C/[C@@H]2O[C@H](CC(=O)OC)C[C@H](OC=O)[C@H]2OC=O)CC=C1C | 3.12 (≈ 5.73 µM) | 12.5 (≈ 22.9 µM) | inactive | inactive |
| CC[C@H]1O[C@@H](/C(C)=C/[C@H](C)/C=C/[C@H]2[C@@H](C)[C@@H]2/C=C/[C@@H]2O[C@H](CC(=O)OC)C[C@H](OC(=O)Nc3ccccc3)[C@H]2OC(=O)Nc2ccccc2)CC=C1C | 25 (≈ 34.4 µM) | > 50 | inactive | inactive |
| CC[C@H]1O[C@@H](/C(C)=C/[C@H](C)/C=C/[C@H]2[C@@H](C)[C@@H]2/C=C/[C@@H]2O[C@H](CC(=O)O)C[C@H](OC=O)[C@H]2OC=O)CC=C1C | 1.56 (≈ 2.94 µM) | 1.56 (≈ 2.94 µM) | 25 µg/mL (≈ 47.1 µM) | inactive |
| CC[C@H]1O[C@@H](/C(C)=C/[C@H](C)/C=C/[C@H]2[C@@H](C)[C@@H]2/C=C/[C@@H]2O[C@H](CC(=O)OC)C[C@H](O)[C@H]2O)CC=C1C (relative stereo) | 0.39 (≈ 0.798 µM) | 0.39 (≈ 0.798 µM) | inactive | inactive |
| CCCCNC(=O)C[C@@H]1C[C@H](O)[C@@H](O)[C@H](/C=C/[C@H]2[C@H](C)[C@@H]2/C=C/[C@@H](C)/C=C(\C)[C@H]2CC=C(C)[C@@H](CC)O2)O1 | 1.56 (≈ 2.94 µM) | 6.25 (≈ 11.8 µM) | 1.56 µg/mL (≈ 2.94 µM) | inactive |
| CCCC(=O)O[C@H]1[C@H](/C=C/[C@H]2[C@H](C)[C@@H]2/C=C/[C@@H](C)/C=C(\C)[C@H]2CC=C(C)[C@@H](CC)O2)O[C@H](CC(=O)O)C[C@@H]1OC(=O)CCC | 12.5 (≈ 20.3 µM) | > 50 | 6.25 µg/mL (≈ 10.2 µM) | inactive |
| CC[C@H]1O[C@@H](/C(C)=C/[C@H](C)/C=C/[C@H]2[C@@H](C)[C@@H]2/C=C/[C@@H]2O[C@H](CC(=O)N3CCCC3)C[C@H](O)[C@H]2O)CC=C1C | 0.39 (≈ 0.739 µM) | 0.78 (≈ 1.48 µM) | 3.12 µg/mL (≈ 5.91 µM) | inactive |
| CC[C@H]1O[C@@H](/C(C)=C/[C@H](C)/C=C/[C@H]2[C@@H](C)[C@@H]2/C=C/[C@@H]2O[C@H](CC(=O)OC)C[C@H](OC(C)=O)[C@H]2OC(C)=O)CC=C1C (relative stereo) | 12.5 (≈ 21.8 µM) | > 50 | inactive | inactive |
| CC[C@H]1O[C@@H](/C(C)=C/[C@H](C)/C=C/[C@H]2[C@@H](C)[C@@H]2/C=C/[C@@H]2O[C@H](CC(=O)N(C(=O)NC3CCCCC3)C3CCCCC3)C[C@H](O)[C@H]2O)CC=C1C | > 50 | > 50 | inactive | inactive |
| CC[C@H]1O[C@@H](/C(C)=C/[C@H](C)/C=C/[C@H]2[C@@H](C)[C@@H]2/C=C/[C@@H]2O[C@H](CC(=O)OC)C[C@H](OC(=O)Nc3ccc(Cl)cc3)[C@H]2OC(=O)Nc2ccc(Cl)cc2)CC=C1C | 50 (≈ 62.8 µM) | > 50 | inactive | inactive |
| CC[C@H]1O[C@@H](/C(C)=C/[C@H](C)/C=C/[C@H]2[C@@H](C)[C@@H]2/C=C/[C@@H]2O[C@H](CC(=O)OC)C[C@@H]3OC(=O)O[C@@H]23)CC=C1C (relative stereo) | 0.78 (≈ 1.52 µM) | 0.39 (≈ 0.758 µM) | inactive | inactive |
| CCC(=O)O[C@H]1[C@H](/C=C/[C@H]2[C@H](C)[C@@H]2/C=C/[C@@H](C)/C=C(\C)[C@H]2CC=C(C)[C@@H](CC)O2)O[C@H](CC(=O)O)C[C@@H]1OC(=O)CC | 6.25 (≈ 10.7 µM) | > 50 | 6.25 µg/mL (≈ 10.7 µM) | inactive |
| CC[C@H]1O[C@@H](/C(C)=C/[C@H](C)/C=C/[C@H]2[C@@H](C)[C@@H]2/C=C/[C@@H]2O[C@H](CC(=O)NCc3ccccc3)C[C@H](O)[C@H]2O)CC=C1C | 6.25 (≈ 11.1 µM) | > 50 | 3.12 µg/mL (≈ 5.53 µM) | inactive |
| CC[C@H]1O[C@@H](/C(C)=C/[C@H](C)/C=C/[C@H]2[C@@H](C)[C@@H]2/C=C/[C@@H]2O[C@H](CC(=O)N3CCCC3)C[C@H](OC(C)=O)[C@H]2OC(C)=O)CC=C1C | 50 (≈ 81.7 µM) | > 50 | inactive | inactive |
